In brackets after ≈: the same amount, converted by molar mass.
Tests used:
Arizona 6.211 = assay: M.I.C. in vitro, nutrient agar dilution; format: cell-based; settings: 18 h; Table III; Arizona 6.211; read-out: M.I.C.
Method: (§1) After sterilisation at 120° C., the pH was 6.8.
(§2) The minimum inhibitory concentrations (M.I.C.) were determined by dilution of the test compounds in this mixture, the concentration ranging from 0.05 to 100 μg/cm^3 in a geometric progression with a factor of 2.
(§3) The inoculation of the dishes was carried out by means of a multiple inoculator with 10^-3 dilutions of 18 hour old broth cultures.
(§4) The dishes were placed in an oven at 37° C. and the readings were taken afer an incubation time of 18 hours. The M.I.C. was taken as the lowest concentration which inhibited a culture.

B. subtilis = assay: M.I.C. in vitro, nutrient agar dilution; format: cell-based; settings: Bacillus subtilis, 18 h; Table III; B. Subtilis; read-out: M.I.C.
Method: as §1, §2, §3, §4

Bord. bronchis. 4.617 = assay: M.I.C. in vitro, nutrient agar dilution; format: cell-based; settings: 18 h; Table III; Bord. bronchis. 4.617; read-out: M.I.C.
Method: as §1, §2, §3, §4

Esch. coli 111 B4 = assay: M.I.C. in vitro, nutrient agar dilution; format: cell-based; settings: Escherichia coli, 18 h; Table III; Esch. coli 111 B4
Method: as §1, §2, §3, §4

Esch. coli 54.127 O.M.S. = assay: M.I.C. in vitro, nutrient agar dilution; format: cell-based; settings: Escherichia coli, 18 h; Table III; Esch. coli 54.127 O.M.S.; read-out: M.I.C.
Method: as §1, §2, §3, §4

Esch. coli 95 I.S.M. = assay: M.I.C. in vitro, nutrient agar dilution; format: cell-based; settings: Escherichia coli, 18 h; Table III; Esch. coli 95 I.S.M.; read-out: M.I.C.
Method: as §1, §2, §3, §4

Klebs. pneum. 10.031 = assay: M.I.C. in vitro, nutrient agar dilution; format: cell-based; settings: 18 h; Table III; Klebs. pneum. 10.031; read-out: M.I.C.
Method: as §1, §2, §3, §4

Pr. mirabilis Nig = assay: M.I.C. in vitro, nutrient agar dilution; format: cell-based; settings: Proteus mirabilis, 18 h; Table III; Pr. mirabilis Nig; read-out: M.I.C.
Method: as §1, §2, §3, §4

Pr. morganii A.236 = assay: M.I.C. in vitro, nutrient agar dilution; format: cell-based; settings: Morganella morganii, 18 h; Table III; Pr. morganii A. 236; read-out: M.I.C.
Method: as §1, §2, §3, §4

Pr. vulgaris 12-53 = assay: M.I.C. in vitro, nutrient agar dilution; format: cell-based; settings: Proteus vulgaris, 1253, 18 h; Table III; Pr. vulgaris 12-53; read-out: M.I.C.
Method: as §1, §2, §3, §4

Providentia 0223 = assay: M.I.C. in vitro, nutrient agar dilution; format: cell-based; settings: 18 h; Table III; Providentia 0223; read-out: M.I.C.
Method: as §1, §2, §3, §4

Ps. aeruginosa 72.345 = assay: M.I.C. in vitro, nutrient agar dilution; format: cell-based; settings: Pseudomonas aeruginosa, 18 h; Table III; Pd. aeruginosa 72.345; read-out: M.I.C.
Method: as §1, §2, §3, §4

Ps. aeruginosa A.22 = assay: M.I.C. in vitro, nutrient agar dilution; format: cell-based; settings: Pseudomonas aeruginosa, 18 h; Table III; Ps. aeruginosa A.22; read-out: M.I.C.
Method: as §1, §2, §3, §4

S. enteritidis Danysz = assay: M.I.C. in vitro, nutrient agar dilution; format: cell-based; settings: Salmonella enterica, 18 h; Table III; S. enteritidis Danysz; read-out: M.I.C.
Method: as §1, §2, §3, §4

S. oranienburg 1066 = assay: M.I.C. in vitro, nutrient agar dilution; format: cell-based; settings: Salmonella enterica, 18 h; Table III; S. oranienburg 1066; read-out: M.I.C.
Method: as §1, §2, §3, §4

Serratia = assay: M.I.C. in vitro, nutrient agar dilution; format: cell-based; settings: 18 h, Table III, read-out: M.I.C.
Method: as §1, §2, §3, §4

Sh. sonnei I.P.S. = assay: M.I.C. in vitro, nutrient agar dilution; format: cell-based; settings: Shigella sonnei, 18 h; Table III; Sh. sonnei I.P.S.; read-out: M.I.C.
Method: as §1, §2, §3, §4

Staph. 209 P = assay: M.I.C. in vitro, nutrient agar dilution; format: cell-based; settings: 18 h; Table III; Staph. 209 P; read-out: M.I.C.
Method: as §1, §2, §3, §4

Staph. 9.144 = assay: M.I.C. in vitro, nutrient agar dilution; format: cell-based; settings: 18 h; Table III; Staph. 9.144; read-out: M.I.C.
Method: as §1, §2, §3, §4

Strepto A 561 = assay: M.I.C. in vitro, nutrient agar dilution; format: cell-based; settings: 18 h; Table III; Strepto A 561
Method: as §1, §2, §3, §4

Strepto D.M. 19 = assay: M.I.C. in vitro, nutrient agar dilution; format: cell-based; settings: 18 h; Table III; Strepto D.M. 19; read-out: M.I.C.
Method: as §1, §2, §3, §4

Salm. typhi 0901 = assay: microbe, parasite or virus in culture; format: cell-based; settings: Salmonella enterica, 18 h; Table III; Salm. typhi 0901
Method: as §1, §2, §3, §4

Escherichia coli P 5101 [1] = assay: Systemic infection in mice; format: in vivo; settings: P5101, po, 168 h, mice, p.o. at infection and 6 hours later, E. coli P 5101, 7 days
Method: (§5) The activity of the compounds according to the invention against systemic infections in mice, caused by Staphylococcus 50,774, Streptococcus pyogenes A 65, Pseudomonas aeruginosa No. 12 and Escherichia coli P 5101, has been studied.
(§6) The infections were set up by intraperitoneal injection of a suspension of the bacterial culture corresponding to the germ studied. The products were administered orally at the time of injection, and 6 hours later. […] Aureus and for 7 days for the other germs.
(§7) Oxolinic acid was used as the reference substance.

[2] = system: Pseudomonas aeruginosa No. 12; assay: Systemic infection in mice; format: in vivo; settings: po, 168 h, mice, p.o. at infection and 6 hours later, P. aeruginosa No. 12, 7 days
Method: as §5, §6, §7

Staph. aureus 50,774 [3] = assay: Systemic infection in mice; format: in vivo; settings: Staphylococcus aureus, po, 336 h, mice, p.o. at infection and 6 hours later, Staph. aureus 50,774, 14 days
Method: as §5, §6, §7

Strept. pyogenes A. 65 [4] = assay: Systemic infection in mice; format: in vivo; settings: Streptococcus pyogenes, po, 168 h, mice, p.o. at infection and 6 hours later, Strept. pyogenes A. 65, 7 days
Method: as §5, §6, §7

Escherichia coli P 5101 [5] = assay: M.I.C. for germ used in experimental infection; format: cell-based; settings: P5101, 18 h, Table 4, E. coli P 5101, read-out: M.I.C.
Method: as §1, §2, §3, §4

[6] = system: Pseudomonas aeruginosa No. 12; assay: M.I.C. for germ used in experimental infection; format: cell-based; settings: 18 h, Table 4, P. aeruginosa No. 12, read-out: M.I.C.
Method: as §1, §2, §3, §4

Staph. aureus 50,774 [7] = assay: M.I.C. for germ used in experimental infection; format: cell-based; settings: Staphylococcus aureus, 18 h; Table 4; Staph. aureus 50,774; read-out: M.I.C.
Method: as §1, §2, §3, §4

Strept. pyogenes A. 65 [8] = assay: M.I.C. for germ used in experimental infection; format: cell-based; settings: Streptococcus pyogenes, 18 h; Table 4; Strept. pyogenes A. 65; read-out: M.I.C.
Method: as §1, §2, §3, §4

in vivo = settings: mouse, mice

In the case of `C=CCN1CCN(c2cc3c(cc2F)c(=O)c(C(=O)O)cn3CC)CC1` [Example 23, 7-(4-Allylpiperazinyl)-1-ethyl-6-fluoro-4-oxo-1,4-dihydro-quinoline-3-carboxylic acid], the MIC (Arizona 6.211) is reported as 0.2 to 0.8 µg/mL (≈ 0.556 to 2.23 µM), the MIC (B. subtilis) is reported as 0.1 to 0.2 µg/mL (≈ 0.278 to 0.556 µM) and the MIC (Bord. bronchis. 4.617) is reported as 3.12 µg/mL (≈ 8.68 µM). For the same compound, the MIC (Esch. coli 111 B4) was 0.2 to 0.8 µg/mL (≈ 0.556 to 2.23 µM), the MIC (Esch. coli 54.127 O.M.S.) was 0.1 to 0.8 µg/mL (≈ 0.278 to 2.23 µM) and the MIC (Esch. coli 95 I.S.M.) was 0.1 to 0.4 µg/mL (≈ 0.278 to 1.11 µM). For the same compound, the MIC (Klebs. pneum. 10.031) was 0.1 to 0.2 µg/mL (≈ 0.278 to 0.556 µM), the MIC (Pr. mirabilis Nig) was 0.4 to 0.8 µg/mL (≈ 1.11 to 2.23 µM) and the MIC (Pr. morganii A.236) was 0.2 µg/mL (≈ 0.556 µM). For the same compound, the MIC (Pr. vulgaris 12-53) was 0.2 to 0.4 µg/mL (≈ 0.556 to 1.11 µM), the MIC (Providentia 0223) was 1.6 to 6.2 µg/mL (≈ 4.45 to 17.3 µM) and the MIC (Ps. aeruginosa 72.345) was 3.12 µg/mL (≈ 8.68 µM). For the same compound, the MIC (Ps. aeruginosa A.22) was 1.6 to 3.12 µg/mL (≈ 4.45 to 8.68 µM), the MIC (S. enteritidis Danysz) was 0.4 µg/mL (≈ 1.11 µM) and the MIC (S. oranienburg 1066) was 6.2 to 12.5 µg/mL (≈ 17.3 to 34.8 µM). The MIC (Serratia) was 0.025 µg/mL (≈ 0.0696 µM), the MIC (Sh. sonnei I.P.S.) was 0.1 to 0.2 µg/mL (≈ 0.278 to 0.556 µM) and the MIC (Staph. 209 P) was 0.1 to 0.2 µg/mL (≈ 0.278 to 0.556 µM). For the same compound, the MIC (Staph. 9.144) was 0.2 µg/mL (≈ 0.556 µM), the MIC (Strepto A 561) was 1.6 to 6.2 µg/mL (≈ 4.45 to 17.3 µM) and the MIC (Strepto D.M. 19) was 0.8 to 3.15 µg/mL (≈ 2.23 to 8.76 µM). It also gave an MIC (Salm. typhi 0901) of 0.1 to 0.4 µg/mL (≈ 0.278 to 1.11 µM), an ED50 (Escherichia coli P 5101 [1]; read-out: ED50) of 2.9 mg/kg and an ED90 (Escherichia coli P 5101 [1]; read-out: ED90) of 5.2 mg/kg. For the same compound, the ED50 ([2]; read-out: ED50) was 13.3 mg/kg, the ED90 ([2]; read-out: ED90) was 26.9 mg/kg and the ED50 (Staph. aureus 50,774 [3]; read-out: ED50) was 5.2 mg/kg. The ED90 (Staph. aureus 50,774 [3]; read-out: ED90) was 17 mg/kg, the ED50 (Strept. pyogenes A. 65 [4]; read-out: ED50) was 64.7 mg/kg and the ED90 (Strept. pyogenes A. 65 [4]; read-out: ED90) was 130 mg/kg. It also gave an MIC (Escherichia coli P 5101 [5]) of 0.39 µg/mL (≈ 1.09 µM), an MIC [6] of 6.25 µg/mL (≈ 17.4 µM) and an MIC (Staph. aureus 50,774 [7]) of 0.39 µg/mL (≈ 1.09 µM). The MIC (Strept. pyogenes A. 65 [8]) was 3.13 µg/mL (≈ 8.71 µM), the LD50 (in vivo; iv) was 177 mg/kg and the LD50 (in vivo; po) was over 2000 mg/kg.

— US4292317A, “1,4-Dihydro-quinoline-3-carboxylic acid derivatives, process for their preparation and compositions containing them” (Laboratorie Roger Bellon, priority 1977, dated 1981)
